Here are results for one molecule from PMC9147171, “Pharmacokinetic/Pharmacodynamic Evaluation of a New Purine-2,6-Dione Derivative in Rodents with Experimental Autoimmune Diseases” (Pharmaceutics, 2022).

For series [1], the system named is collagen-induced arthritis (CIA) in rats. Briefly: Collagen-induced arthritis (CIA) in rats, PK/PD arthritis progression model. In kind it is in vivo, female Lewis rats. The procedure:
Female Lewis rats were subcutaneously injected at the base of the tail with the emulsion prepared according to the protocol supplied by Chondrex, Inc. (Redmond, WA, USA) at days 0 and 7 of the experiment. To obtain the emulsion, porcine collagen type II (Chondrex, Inc.) (2 mg/mL) in 0.05 M acetic acid was emulsified with incomplete Freund’s adjuvant (Sigma-Aldrich, St. Louis, MO, USA) using a homogenizer with a small blade (LabGen 125, Cole-Parmer, Vernon Hills, IL, USA). On day 20, the animals that developed symptoms of arthritis, i.e., paw swelling above 150% of day 0, were randomly divided into two groups: the control group receiving vehicle alone (n = 6) and the study group treated with the investigated compound at a dose of 20 mg·kg^−1, IP once daily for 21 days (n = 6). Relative paw edema of arthritic rats was measured using a digital caliper according to the procedure described by Earp et al. up to 40 days after the first immunization and then the animals were sacrificed. In addition, the body weight of animals was monitored. After randomization on day 20, using the Mann–Whitney U test, it was verified that there is no significant difference in paw size between the groups.
A previously developed PK/PD model of arthritis progression in rats was utilized in this study (Figure 2). The model was described in detail in our previous publication. Originally, this model was used to assess and compare the effects of a PDE4-selective inhibitor rolipram and two non-selective PDE inhibitors, namely GRMS-55 and lisofylline in CIA in female Lewis rats.
Briefly, the model assumes that PDE inhibitors act by suppressing the production of a precursor of arthritis progression. This is in line with the actual mechanism of anti-inflammatory action of PDE inhibitors that exert their effects by inhibiting the transcription of pro-inflammatory mediators, which participate in the arthritis development. […] Therefore, it was feasible to compare the potency of compound 34 and other PDE inhibitors that were evaluated in our previous study. […]

For series [2], the system named is ConA-induced hepatitis in mice. Briefly: ConA-induced hepatitis in mice. In kind it is in vivo, BALB/c mice. The settings on record: 50 mg·kg^−1 IP 30 min prior to ConA. The procedure: ConA was dissolved in saline for injection at a concentration of 2 mg·mL^−1. The mice were given IP doses of compound 34 or the equivalent volume of vehicle (control group) and, 30 min later, animals were given an IV injection of ConA (20 mg·kg^−1) via tail vein. An additional group of mice was given vehicle alone IP followed by an IV injection of saline. The mice were sacrificed by exsanguination at 2, 8, and 24 h post-ConA dosing. Blood samples were collected and handled as described above.
Serum aspartate transaminase (AST) and alanine transaminase (ALT) activities were analyzed using the chemistry analyzer BS-800 (Shenzhen Mindray Bio-medical Electronics Co., Ltd., Shenzhen, China). Cytokine levels in mouse serum (TNFα, IL-4, IL-6, and interferon (IFN)γ) were quantified by a Magnetic Luminex® Assay (R&D Systems, Inc, Minneapolis, MN, USA) using a Magpix platform (Luminex Corp., Austin, TX, USA).

Turning to `Cn1c(=O)c2c(nc(NCCc3ccccc3)n2CCCC(=O)NN=Cc2ccc(O)c(O)c2O)n(C)c1=O` [Compound 34, 4-(1,3-dimethyl-2,6-dioxo-8-(phenethylamino)-2,3,6,7-tetrahydro-1H-purin-7-yl)-N′-(2,3,4-trihydroxybenzylidene)butanehydrazide], the “Relative body weight, experimental vs control group” value in series [1] (20 mg·kg^−1 IP once daily for 21 days) was “not significantly different”. In addition, the “IC50_Paw in suppressing paw edema, times lower than that for rolipram” value in series [1] (PK/PD model, rolipram value from ref 28) was 10 times. Moreover, the “IC50_Paw, times lower than that for GRMS-55” value in series [1] (same PK/PD model, GRMS-55 value from ref 28) is on record as “around 260 times”. Further, in series [2] (2 h after ConA injection), the “serum IFNγ level compared to the control group” value is “not significantly different”; the “serum IL-4 concentration, lower compared to the control group” value came out at 76%; the “serum IL-6 level compared to the control group” value is “not significantly different”; the “serum TNFα concentration, lower compared to the control group” value is reported as 34%. Moreover, in series [2] (8 h post-ConA injection), the “ALT serum activity, reduction compared to the control group” value was determined as 73% and the “AST serum activity, reduction compared to the control group” value was found to be 59%. Besides, in series [2] (24 h post-ConA dosing), the “serum IFNγ concentration, lower compared to the control group” value was determined as 36%; the “serum IL-4 level, treatment vs control group” value is “not different”; the “serum IL-6 level, treatment vs control group” value is reported as “not different”.
